Type in all cases: cell-based
Assay [1] addresses human EGFR exon 20 insertion NPG (H773_V774insNPG) (Homo sapiens, UniProt P00533, INS773NPG, cells depend on it). Put plainly: Ba/F3-EGFR-Exon20-NPG cell anti-proliferative assay (CellTiter 96 MTS, 72 h). The note with it: read-out: EGFR exon 20 NPG insertion IC50.
Protocol: Ba/F3 cells expressing EGFR exon 20 insertions (named Ba/F3-EGFR-Exon20-NPG or Ba/F3-EGFR-Exon20-ASV) can proliferate in the absence of IL-3. The anti-proliferative activity of compounds were determined as follows: BaF3-EGFR-Exon20 cells (NPG or ASV) seeded in 96 well plates (2500 cells/well) were treated with test compound (dissolved in DMSO) at a series of concentrations (4-fold dilution, top concentration: 10,000 nM). The plates were incubated for 72 h in a 37° C. incubator with 5% CO2, and the number of viable cells in each well were measured indirectly by CellTiter 96® Aqueous One Solution Cell Proliferation Assay (Promega) This assay is a colorimetric method for determining the number of viable cells through measurement of their metabolic activity by detection of enzymatic conversion of tetrazolium salts into blue formazan derivatives. Reagent (20 μL) was added into each well, and the plates were returned to the incubator for 2 h. The absorbance in each well was then measured at 490 nm using an Envision plate reader (Perkin Elmer).
The target of assay [2] is human EGFR E746-A750 deletion and T790M Mutation (DT) (Homo sapiens (Human), UniProt P00533, DEL746-750/T790M). Kind of assay: Ba/F3-EGFR-Del/T790M cell anti-proliferative assay (CellTiter 96 MTS, 72 h). The note with it: Ba/F3-EGFR-Del/T790M cells; for IC50: read-out: EGFR exon 19 deletion and T790M mutation IC50.
human EGFR E746-A750 deletion and T790M Mutation (DT), sequence (P00533 other isoform, or with tags, fused parts or gaps T790M/del E746-A750): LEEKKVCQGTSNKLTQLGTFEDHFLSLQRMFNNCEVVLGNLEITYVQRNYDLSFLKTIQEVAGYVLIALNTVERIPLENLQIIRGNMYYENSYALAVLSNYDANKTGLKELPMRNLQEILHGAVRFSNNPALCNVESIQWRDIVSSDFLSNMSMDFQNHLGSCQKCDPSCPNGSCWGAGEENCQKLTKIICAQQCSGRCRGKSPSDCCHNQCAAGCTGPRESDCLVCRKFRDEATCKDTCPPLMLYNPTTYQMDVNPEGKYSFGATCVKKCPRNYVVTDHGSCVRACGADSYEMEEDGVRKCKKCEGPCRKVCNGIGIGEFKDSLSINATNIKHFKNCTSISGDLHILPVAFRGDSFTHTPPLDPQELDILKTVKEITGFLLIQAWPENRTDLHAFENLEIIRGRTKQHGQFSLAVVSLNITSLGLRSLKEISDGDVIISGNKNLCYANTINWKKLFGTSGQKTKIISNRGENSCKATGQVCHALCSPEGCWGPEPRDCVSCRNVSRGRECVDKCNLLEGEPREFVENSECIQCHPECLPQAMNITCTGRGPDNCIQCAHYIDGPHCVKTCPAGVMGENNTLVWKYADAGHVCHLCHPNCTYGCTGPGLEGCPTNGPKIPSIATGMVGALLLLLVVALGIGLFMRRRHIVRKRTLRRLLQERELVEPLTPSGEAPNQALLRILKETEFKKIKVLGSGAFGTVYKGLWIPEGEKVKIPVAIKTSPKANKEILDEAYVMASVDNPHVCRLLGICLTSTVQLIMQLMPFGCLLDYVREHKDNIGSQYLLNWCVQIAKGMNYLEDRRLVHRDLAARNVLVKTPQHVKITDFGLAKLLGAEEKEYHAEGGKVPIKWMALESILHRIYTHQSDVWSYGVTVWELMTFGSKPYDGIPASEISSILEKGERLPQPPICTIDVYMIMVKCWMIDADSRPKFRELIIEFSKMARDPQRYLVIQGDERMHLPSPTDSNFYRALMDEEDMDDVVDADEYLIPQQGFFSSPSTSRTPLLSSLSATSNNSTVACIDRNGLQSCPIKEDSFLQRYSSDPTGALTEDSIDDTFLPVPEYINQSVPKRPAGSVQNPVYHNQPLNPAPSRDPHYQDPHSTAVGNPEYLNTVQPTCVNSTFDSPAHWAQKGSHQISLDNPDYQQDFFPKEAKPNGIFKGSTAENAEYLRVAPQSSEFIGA
Protocol: An expression vector, pLVX-IRES puro (Clontech) coding for human EGFR E746-A750 deletion and T790M Mutation, was transfected into HEK293 cells by the Trans-Lentiviral ORF Packaging System (Thermo Scientific), to produce virus encoding EGFR exon 19 deletion and T790M mutations. […] Ba/F3 cells expressing EGFR E746-A750 deletion and T790M Mutation (named Ba/F3-EGFR-Del/T790M) can proliferate in the absence of IL-3. The anti-proliferative activity of compounds was determined as follows: BaF3-EGFR-Del/T790M cells seeded in 96 well plates (2500 cells/well) were treated with test compound (dissolved in DMSO) at a series of concentrations (4-fold dilution, top concentration: 10,000 nM). The plates were incubated for 72 h in a 37° C. incubator with 5% CO2, and the number of viable cells in each well were measured indirectly by CellTiter 96® Aqueous One Solution Cell Proliferation Assay (Promega; this assay is a colorimetric method for determining the number of viable cells through measurement of their metabolic activity by detection of enzymatic conversion of tetrazolium salts into blue formazan derivatives). Reagent (20 μL) was added into each well, and the plates were returned to the incubator for 2 h. The absorbance in each well was then measured at 490 nm using an Envision plate reader (Perkin Elmer).
The target in assay [3] is Her2 exon 20 YVMA insertion (A775_G776ins YVMA) (Homo sapiens (Human), UniProt P04626, INS775YVMA). Put plainly: Ba/F3-Her2 Exon20 YVMA cell anti-proliferative assay (CellTiter 96 MTS, 72 h). The note with it: Ba/F3-Her2 Exon20 YVMA cells. The source says:
Ba/F3 cells expressing Her2 Exon20 YVMA insertions (named Ba/F3-Her2 Exon20 YVMA) can proliferate in the absence of IL-3.

Assay [4] concerns the target human EGFR exon 20 insertion ASV (V769_D770insASV) (Homo sapiens (Human), UniProt P00533, INS769ASV). Kind of assay: Ba/F3-EGFR-Exon20-ASV cell anti-proliferative assay (CellTiter 96 MTS, 72 h).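 Also: Ba/F3 cells bearing the EGFR exon 20 ASV insertion, a line able to proliferate without IL-3.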 The note with it: Ba/F3-EGFR-Exon20-ASV cells.

The structures appear in SMILES notation.

human EGFR exon 20 insertion ASV (V769_D770insASV), sequence (P00533 other isoform, or with tags, fused parts or gaps ins ASV behind 769): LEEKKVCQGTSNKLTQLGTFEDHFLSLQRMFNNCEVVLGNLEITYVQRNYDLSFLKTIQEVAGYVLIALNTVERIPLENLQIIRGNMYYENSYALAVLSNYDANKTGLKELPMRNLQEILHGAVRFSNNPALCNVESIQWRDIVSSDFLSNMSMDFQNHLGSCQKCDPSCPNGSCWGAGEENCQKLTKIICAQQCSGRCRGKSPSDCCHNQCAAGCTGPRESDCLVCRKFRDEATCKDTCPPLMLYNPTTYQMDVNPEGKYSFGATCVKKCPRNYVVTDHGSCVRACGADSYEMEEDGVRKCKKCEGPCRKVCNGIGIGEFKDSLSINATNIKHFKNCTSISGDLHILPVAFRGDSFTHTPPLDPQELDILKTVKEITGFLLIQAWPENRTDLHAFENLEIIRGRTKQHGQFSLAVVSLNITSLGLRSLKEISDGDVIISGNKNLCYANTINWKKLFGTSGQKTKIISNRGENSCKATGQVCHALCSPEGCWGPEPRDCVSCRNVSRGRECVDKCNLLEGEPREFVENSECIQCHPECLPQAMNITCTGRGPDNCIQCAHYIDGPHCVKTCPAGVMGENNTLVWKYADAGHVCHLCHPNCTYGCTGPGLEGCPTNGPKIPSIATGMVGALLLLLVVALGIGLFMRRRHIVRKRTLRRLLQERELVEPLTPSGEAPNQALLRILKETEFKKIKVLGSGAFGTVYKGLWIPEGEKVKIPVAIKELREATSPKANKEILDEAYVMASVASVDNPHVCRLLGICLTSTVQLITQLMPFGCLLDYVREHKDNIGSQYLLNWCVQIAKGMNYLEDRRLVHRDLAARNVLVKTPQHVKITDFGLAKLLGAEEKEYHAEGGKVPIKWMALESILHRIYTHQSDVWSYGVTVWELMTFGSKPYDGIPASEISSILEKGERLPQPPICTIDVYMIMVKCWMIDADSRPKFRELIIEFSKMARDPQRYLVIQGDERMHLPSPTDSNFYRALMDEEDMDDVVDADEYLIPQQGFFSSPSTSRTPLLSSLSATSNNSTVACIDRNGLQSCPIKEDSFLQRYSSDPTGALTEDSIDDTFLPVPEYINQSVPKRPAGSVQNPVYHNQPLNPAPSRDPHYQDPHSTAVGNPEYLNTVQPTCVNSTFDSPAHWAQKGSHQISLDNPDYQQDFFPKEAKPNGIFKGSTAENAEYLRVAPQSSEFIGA
human EGFR exon 20 insertion NPG (H773_V774insNPG), sequence (P00533 with tags, fused parts or gaps INS773NPG limits assumed): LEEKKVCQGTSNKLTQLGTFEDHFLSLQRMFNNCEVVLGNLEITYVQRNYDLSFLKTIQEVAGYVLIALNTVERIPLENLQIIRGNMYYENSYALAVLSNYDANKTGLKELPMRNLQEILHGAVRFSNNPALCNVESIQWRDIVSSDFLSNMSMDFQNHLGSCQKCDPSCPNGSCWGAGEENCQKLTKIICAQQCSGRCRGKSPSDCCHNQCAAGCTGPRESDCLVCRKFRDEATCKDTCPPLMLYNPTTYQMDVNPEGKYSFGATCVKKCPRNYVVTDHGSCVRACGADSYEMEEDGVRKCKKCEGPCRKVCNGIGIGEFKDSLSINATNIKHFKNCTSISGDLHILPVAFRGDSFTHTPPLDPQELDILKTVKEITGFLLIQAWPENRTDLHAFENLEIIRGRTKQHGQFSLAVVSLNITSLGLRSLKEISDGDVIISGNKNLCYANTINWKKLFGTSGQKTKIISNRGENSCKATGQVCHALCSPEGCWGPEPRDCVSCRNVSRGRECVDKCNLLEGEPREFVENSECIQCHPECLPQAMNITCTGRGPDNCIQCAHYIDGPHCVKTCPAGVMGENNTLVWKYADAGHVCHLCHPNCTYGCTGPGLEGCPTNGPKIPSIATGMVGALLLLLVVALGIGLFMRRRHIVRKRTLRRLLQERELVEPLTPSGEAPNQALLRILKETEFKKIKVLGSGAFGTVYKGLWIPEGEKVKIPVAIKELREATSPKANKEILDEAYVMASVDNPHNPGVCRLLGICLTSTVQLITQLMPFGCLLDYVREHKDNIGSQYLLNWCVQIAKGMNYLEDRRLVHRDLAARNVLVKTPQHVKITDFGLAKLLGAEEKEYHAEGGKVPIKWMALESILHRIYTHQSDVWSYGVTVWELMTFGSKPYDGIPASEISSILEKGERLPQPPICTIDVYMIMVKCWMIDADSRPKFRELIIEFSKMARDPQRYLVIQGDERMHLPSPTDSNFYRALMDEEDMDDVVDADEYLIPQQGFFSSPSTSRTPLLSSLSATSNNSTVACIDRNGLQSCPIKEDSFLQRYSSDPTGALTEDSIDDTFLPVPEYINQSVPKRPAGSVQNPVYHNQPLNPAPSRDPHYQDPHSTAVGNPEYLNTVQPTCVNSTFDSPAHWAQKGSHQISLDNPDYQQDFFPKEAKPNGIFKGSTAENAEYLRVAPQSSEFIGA
Her2 exon 20 YVMA insertion (A775_G776ins YVMA), sequence (P04626 other isoform, or with tags, fused parts or gaps ins YVMA behind 775): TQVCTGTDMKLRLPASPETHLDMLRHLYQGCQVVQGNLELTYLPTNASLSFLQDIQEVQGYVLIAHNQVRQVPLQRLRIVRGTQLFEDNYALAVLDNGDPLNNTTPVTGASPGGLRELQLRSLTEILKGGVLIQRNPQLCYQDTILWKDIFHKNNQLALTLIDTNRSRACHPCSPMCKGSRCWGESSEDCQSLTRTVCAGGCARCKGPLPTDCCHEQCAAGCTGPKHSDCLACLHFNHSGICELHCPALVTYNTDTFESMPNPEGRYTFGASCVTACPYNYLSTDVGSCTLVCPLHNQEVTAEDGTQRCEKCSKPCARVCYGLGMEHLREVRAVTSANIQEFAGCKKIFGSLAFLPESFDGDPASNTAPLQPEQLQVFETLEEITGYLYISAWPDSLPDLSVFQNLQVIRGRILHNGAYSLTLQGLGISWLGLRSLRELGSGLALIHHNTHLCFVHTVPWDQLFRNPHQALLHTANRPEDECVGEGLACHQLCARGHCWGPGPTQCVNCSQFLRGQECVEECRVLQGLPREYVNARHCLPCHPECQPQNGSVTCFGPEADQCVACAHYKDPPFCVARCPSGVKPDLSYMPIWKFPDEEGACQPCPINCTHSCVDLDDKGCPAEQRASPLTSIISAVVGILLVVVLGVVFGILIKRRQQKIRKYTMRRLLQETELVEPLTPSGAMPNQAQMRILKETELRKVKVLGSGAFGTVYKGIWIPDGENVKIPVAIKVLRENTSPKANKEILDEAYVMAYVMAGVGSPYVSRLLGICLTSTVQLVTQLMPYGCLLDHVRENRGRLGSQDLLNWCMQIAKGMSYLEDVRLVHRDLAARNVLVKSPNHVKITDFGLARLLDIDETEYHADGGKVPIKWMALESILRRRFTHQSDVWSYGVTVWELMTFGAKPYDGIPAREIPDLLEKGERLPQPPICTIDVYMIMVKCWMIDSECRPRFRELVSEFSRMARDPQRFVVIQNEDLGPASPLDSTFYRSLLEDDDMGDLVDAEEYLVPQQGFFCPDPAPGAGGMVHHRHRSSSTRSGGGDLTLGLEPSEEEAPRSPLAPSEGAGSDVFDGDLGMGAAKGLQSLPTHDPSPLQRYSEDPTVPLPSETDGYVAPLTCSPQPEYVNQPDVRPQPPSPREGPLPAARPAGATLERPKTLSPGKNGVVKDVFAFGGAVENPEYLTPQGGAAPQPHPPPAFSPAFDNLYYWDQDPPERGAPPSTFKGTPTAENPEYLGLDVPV

In general, IC50 refers to the concentration needed to halve the response being measured. For `C=CC(=O)Nc1cc(Nc2ncc(CC)c(-c3cnn4ccccc34)n2)c(OC)cc1N(C)CCN(C)C` [Example 1, N-(2-((2-(dimethylamino)ethyl)(methyl)amino)-5-((5-ethyl-4-(pyrazolo[1,5-a]pyridin-3-yl)pyrimidin-2-yl)amino)-4-methoxyphenyl)acrylamide], the IC50 in assay [1] is < 100 nM; in assay [2] it was < 100 nM; in assay [3], 100 to 500 nM.

Regarding `C=CC(=O)Nc1cc(Nc2ncnc(-c3c(C4=CCOCC4)n(C)c4ccccc34)n2)c(OC)cc1N(C)CCN(C)C` [Example 2, N-(5-((4-(2-(3,6-dihydro-2H-pyran-4-yl)-1-methyl-1H-indol-3-yl)-1,3,5-triazin-2-yl)amino)-2-((2-(dimethylamino)ethyl)(methyl)amino)-4-methoxyphenyl)acrylamide], the IC50 in assay [4] is < 100 nM; in assay [1], < 100 nM; in assay [2], < 100 nM; in assay [3] it was 100 to 500 nM.

For the molecule `C=CC(=O)Nc1cc(Nc2ncnc(-c3c(-c4ccccc4)n(C)c4ccccc34)n2)c(OC)cc1N(C)CCN(C)C` [Example 3, N-(2-((2-(dimethylamino)ethyl)(methyl)amino)-4-methoxy-5-((4-(1-methyl-2-phenyl-1H-indol-3-yl)-1,3,5-triazin-2-yl)amino)phenyl)acrylamide], the IC50 in assay [4] is < 100 nM; in assay [1], < 100 nM; in assay [2], < 100 nM; in assay [3], 100 to 500 nM.

For the molecule `C=CC(=O)Nc1cc(Nc2ncnc(-c3c(C4CCOCC4)n(C)c4ccccc34)n2)c(OC)cc1N(C)CCN(C)C` [Example 4, N-(2-((2-(dimethylamino)ethyl)(methyl)amino)-4-methoxy-5-((4-(1-methyl-2-(tetrahydro-2H-pyran-4-yl)-1H-indol-3-yl)-1,3,5-triazin-2-yl)amino)phenyl)acrylamide], the 50% inhibitory concentration (IC50) was 100 to 500 nM in assay [4], < 100 nM in assay [1] and 100 to 500 nM in assay [3]. The “EGFR exon 19 deletion and T790M mutation IC50” value in assay [2] was “B (Group B compounds have an IC50 value for the indicated mutant between about 100 to about 500 nM)”.

As to `C=CC(=O)Nc1cc(Nc2nccc(-c3c(-c4cncc(Cl)c4)n(C)c4ccccc34)n2)c(OC)cc1N(C)CCN(C)C` [Example 6, N-(5-((4-(2-(5-chloropyridin-3-yl)-1-methyl-1H-indol-3-yl)pyrimidin-2-yl)amino)-2-((2-(dimethylamino)ethyl)(methyl)amino)-4-methoxyphenyl)acrylamide], the IC50 was < 100 nM in assay [4], < 100 nM in assay [1], < 100 nM in assay [2] and 100 to 500 nM in assay [3].

Turning to `C=CC(=O)Nc1cc(Nc2ncc(C(=O)OC)c(-c3cn(C)c4ccccc34)n2)c(OC)cc1N(C)CCN(C)C` [Example 8, methyl 2-((5-acrylamido-4-((2-(dimethylamino)ethyl)(methyl)amino)-2-methoxyphenyl)amino)-4-(1-methyl-1H-indol-3-yl)pyrimidine-5-carboxylate], the concentration for half-maximal inhibition (IC50) in assay [4], in assay [1], in assay [2] and in assay [3] was < 100 nM in each case.

`C=CC(=O)Nc1cc(Nc2ncc(C(=O)OC3COC3)c(-c3cn(C)c4ccccc34)n2)c(OC)cc1N(C)CCN(C)C` [Example 11, oxetan-3-yl 2-((5-acrylamido-4-((2-(dimethylamino)ethyl)(methyl)amino)-2-methoxyphenyl)amino)-4-(1-methyl-1H-indol-3-yl)pyrimidine-5-carboxylate]: the IC50 in assay [4], in assay [1], in assay [2] and in assay [3] was < 100 nM each time.

For the molecule `C=CC(=O)Nc1cc(Nc2ncc(C(=O)OC3CN(C)C3)c(-c3cn(C)c4ccccc34)n2)c(OC)cc1N(C)CCN(C)C` [Example 12, 1-methylazetidin-3-yl 2-((5-acrylamido-4-((2-(dimethylamino)ethyl)(methyl)amino)-2-methoxyphenyl)amino)-4-(1-methyl-1H-indol-3-yl)pyrimidine-5-carboxylate], the IC50 in assay [4], in assay [1], in assay [2] and in assay [3] was > 1000 nM in each case.

Take `C=CC(=O)Nc1cc(Nc2ncc(Cl)c(-c3cnn4ccccc34)n2)c(OC)cc1N(C)CCN1CCN(C)CC1` [Example 27, N-(5-((5-chloro-4-(pyrazolo[1,5-a]pyridin-3-yl)pyrimidin-2-yl)amino)-4-methoxy-2-(methyl(2-(4-methylpiperazin-1-yl)ethyl)amino)phenyl)acrylamide]: the half-inhibitory concentration (IC50) in assay [1] is 500 to 1000 nM; in assay [2] it was < 100 nM; in assay [3], > 1000 nM.

In the case of `C=CC(=O)Nc1cc(Nc2ncc(Cl)c(-c3cnn4ccccc34)n2)c(OC)cc1N(C)CCN(C)CCF` [Example 33, N-(5-((5-chloro-4-(pyrazolo[1,5-a]pyridin-3-yl)pyrimidin-2-yl)amino)-2-((2-((2-fluoroethyl)(methyl)amino)ethyl)(methyl)amino)-4-methoxyphenyl)acrylamide], the IC50 in assay [1] was 100 to 500 nM; in assay [2], < 100 nM; in assay [3], 500 to 1000 nM.

Turning to `C=CC(=O)Nc1cc(Nc2ncc(Cl)c(-c3cn(C)c4c5c(ccc34)CCC5)n2)c(OC)cc1N(C)CCN(C)C` [Example 43, N-(5-((5-chloro-4-(1-methyl-1,6,7,8-tetrahydrocyclopenta[g]indol-3-yl)pyrimidin-2-yl)amino)-2-((2-(dimethylamino)ethyl)(methyl)amino)-4-methoxyphenyl)acrylamide], the half-inhibitory concentration (IC50) in assay [1] is < 100 nM; in assay [2] it was < 100 nM; in assay [3] it was 100 to 500 nM.

As to `C=CC(=O)Nc1cc(Nc2ncc(Cl)c(-c3cn(C)c4ccccc34)n2)c(OC)cc1O[C@@H](COCC)CN(C)C` [Example 44, (R)-N-(5-((5-chloro-4-(1-methyl-1H-indol-3-yl)pyrimidin-2-yl)amino)-2-((1-(dimethylamino)-3-ethoxypropan-2-yl)oxy)-4-methoxyphenyl)acrylamide], the IC50 is 100 to 500 nM in assay [1], < 100 nM in assay [2] and 500 to 1000 nM in assay [3].

Turning to `C=CC(=O)Nc1cc(Nc2ncc(Cl)c(-c3cn(C)c4ccccc34)n2)c(OC)cc1C#CCN(C)C` [Example 45, N-(5-((5-chloro-4-(1-methyl-1H-indol-3-yl)pyrimidin-2-yl)amino)-2-(3-(dimethylamino)prop-1-yn-1-yl)-4-methoxyphenyl)acrylamide], the half-maximal inhibitory concentration (IC50) was 100 to 500 nM in assay [1], < 100 nM in assay [2] and 500 to 1000 nM in assay [3].

For the molecule `C=CC(=O)Nc1cc(Nc2ncc(Cl)c(-c3cn(C)c4ccccc34)n2)c(OC)cc1C#CC(C)(C)N(C)C` [Example 46, N-(5-((5-chloro-4-(1-methyl-1H-indol-3-yl)pyrimidin-2-yl)amino)-2-(3-(dimethylamino)-3-methylbut-1-yn-1-yl)-4-methoxyphenyl)acrylamide], the IC50 was 100 to 500 nM in assay [1], < 100 nM in assay [2] and 500 to 1000 nM in assay [3].

For the molecule `C=CC(=O)Nc1cc(Nc2ncc(Cl)c(-c3cnn4ccccc34)n2)c(OC)cc1OC(COC)CN(CC)CC` (stereo not shown) [Example 47, N-(5-((5-chloro-4-(pyrazolo[1,5-a]pyridin-3-yl)pyrimidin-2-yl)amino)-2-((1-(diethylamino)-3-methoxypropan-2-yl)oxy)-4-methoxyphenyl) acrylamide], the figures for the 50% inhibitory concentration (IC50) in assay [1], in assay [2] and in assay [3] were 100 to 500 nM, < 100 nM and 500 to 1000 nM, respectively.

For the molecule `C=CC(=O)Nc1cc(Nc2ncc(Cl)c(-c3cnn4ccccc34)n2)c(OC)cc1OCCN1CCCC1` [Example 49, N-(5-((5-chloro-4-(pyrazolo[1,5-a]pyridin-3-yl)pyrimidin-2-yl)amino)-4-methoxy-2-(2-(pyrrolidin-1-yl)ethoxy)phenyl)acrylamide], the half-maximal inhibitory concentration (IC50) is 100 to 500 nM in assay [1], < 100 nM in assay [2] and 500 to 1000 nM in assay [3].

Turning to `C=CC(=O)Nc1cc(Nc2ncc(Cl)c(-c3cnn4ccccc34)n2)c(OC)cc1OCCN1CCOCC1` [Example 50, N-(5-((5-chloro-4-(pyrazolo[1,5-a]pyridin-3-yl)pyrimidin-2-yl)amino)-4-methoxy-2-(2-morpholinoethoxy)phenyl)acrylamide], the results for the concentration for half-maximal inhibition (IC50) in assay [1], in assay [2] and in assay [3] were > 1000 nM, < 100 nM and > 1000 nM, respectively.

For the molecule `C=CC(=O)Nc1cc(Nc2ncc(Cl)c(-c3cnn4ccccc34)n2)c(OC)cc1N(C)CCN(CC)CC` [Example 53, N-(5-((5-chloro-4-(pyrazolo[1,5-a]pyridin-3-yl)pyrimidin-2-yl)amino)-2-((2-(diethylamino)ethyl)-(methyl)amino)-4-methoxyphenyl)acrylamide], the half-maximal inhibitory concentration (IC50) is 100 to 500 nM in assay [1], < 100 nM in assay [2] and 500 to 1000 nM in assay [3].

For the molecule `C=CC(=O)Nc1cc(Nc2ncc(Cl)c(-c3cnn4ccccc34)n2)c(OC)cc1N(C)CCN1CCOCC1` [Example 54, N-(5-((5-chloro-4-(pyrazolo[1,5-a]pyridin-3-yl)pyrimidin-2-yl)amino)-4-methoxy-2-(methyl(2-morpholinoethyl)amino)phenyl)-acrylamide], the half-maximal inhibitory concentration (IC50) in assay [1] is 500 to 1000 nM; in assay [2] it was < 100 nM; in assay [3], > 1000 nM.

Regarding `C=CC(=O)Nc1cc(Nc2nccc(-c3cn(C)c4ccccc34)n2)c(OC)cc1N(C)CCNC` [Example 57, N-(4-methoxy-2-(methyl(2-(methylamino)ethyl)amino)-5-((4-(1-methyl-1H-indol-3-yl)pyrimidin-2-yl)amino)phenyl)acrylamide], the 50% inhibitory concentration (IC50) in assay [4] is 100 to 500 nM; in assay [1] it was < 100 nM; in assay [3], 100 to 500 nM.

These data come from patent US10227342B2 (ARIAD PHARMACEUTICALS, INC., priority 2014, dated 2019).
